{"source": "patent US20140187559A1", "about": "“INHIBITORS OF THE FIBROBLAST GROWTH FACTOR RECEPTOR” (BLUEPRINT MEDICINES CORPORATION, priority 2012, published 2014)", "key": {"Hep3B xenograft tumors": {"test_system": "Hep3B xenograft tumors", "experiment": "Hep3B liver cancer cell subcutaneous xenograft model, tumor volume", "type": "in vivo, Mus Musculus", "description": "[…] female nude mice (Mus Musculus) age 6 to 8 weeks were used. Tumor cell culture and inoculation: Hep3B cells were cultured with EMEM medium (Invitrogen, USA) supplemented with 10% FBS (Gibco, Australia). The cells were harvested in 90% confluence, and the viability was no less than 90%. Mice were implanted subcutaneously (s.c.) with 200 μL of 10×10^6 Hep3B cells in 50% Matrigel in the right flank at the beginning of the study.\nAnimal grouping and dosing schedule: Ten days after cell implantation, when tumors reached an average volume of 199 mm^3, 45 mice were selected based on tumor volume and randomly assigned to 5 treatment groups (n=9). The day of randomization was denoted as D0 and the treatment was started from then on.\n(§1) Tumor volume and body weight measurements: Tumor size was measured twice per week in two dimensions using a caliper, and the volume was expressed in mm^3 using the formula: V=0.5 a×b^2 where a and b were the long and short diameters of the tumor, respectively. Body weight was measured at least twice weekly.\nEnd of in vivo portion: Blood, tumors and livers were collected from 3 mice in each treated group at 4, 12 and 24 hours after the last dose. The left lobe of the liver was collected for pharmacodynamic (PD) studies, and the rest of the liver was stored in formalin for histology. The small tumors were prioritized for use in pharmacokinetic studies. Any remaining tumor was fixed for histological analysis first, and then was snap-frozen for the PD study."}, "wild type FGFR-1": {"target": "T1, wild type FGFR-1 (Homo sapiens, UniProt P11362)", "T1 construct": "purchased Carna Biosciences, Inc", "T1 sequence (P11362 22-822)": "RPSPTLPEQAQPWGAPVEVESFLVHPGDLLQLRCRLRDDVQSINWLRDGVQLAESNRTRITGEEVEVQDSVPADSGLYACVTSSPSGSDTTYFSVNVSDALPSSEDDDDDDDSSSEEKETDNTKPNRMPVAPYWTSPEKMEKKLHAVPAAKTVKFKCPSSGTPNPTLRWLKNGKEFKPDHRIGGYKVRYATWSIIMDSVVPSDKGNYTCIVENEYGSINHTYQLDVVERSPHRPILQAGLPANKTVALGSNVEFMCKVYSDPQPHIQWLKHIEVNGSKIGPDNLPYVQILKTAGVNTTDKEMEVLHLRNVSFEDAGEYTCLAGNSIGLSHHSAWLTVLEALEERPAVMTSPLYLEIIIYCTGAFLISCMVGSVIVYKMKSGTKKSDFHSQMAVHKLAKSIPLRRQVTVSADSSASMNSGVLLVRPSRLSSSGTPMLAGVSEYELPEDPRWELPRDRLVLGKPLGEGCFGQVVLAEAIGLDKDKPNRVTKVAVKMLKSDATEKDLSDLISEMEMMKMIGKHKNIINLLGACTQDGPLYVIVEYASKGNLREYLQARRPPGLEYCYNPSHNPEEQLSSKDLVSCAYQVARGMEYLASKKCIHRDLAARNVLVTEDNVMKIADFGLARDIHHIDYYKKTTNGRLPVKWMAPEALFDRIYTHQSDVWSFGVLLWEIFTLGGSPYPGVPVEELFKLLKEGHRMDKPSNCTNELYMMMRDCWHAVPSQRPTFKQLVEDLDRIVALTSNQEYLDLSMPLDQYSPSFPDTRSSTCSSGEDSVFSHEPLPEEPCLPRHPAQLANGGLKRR", "experiment": "FGFR-1 wild type assay at Km (Caliper mobility shift)", "type": "biochemical", "conditions": "400 uM ATP, 25 C, 90 minutes; read-out: FGFR1 IC50", "description": "(§2) In order to assess the activity of chemical compounds against the relevant kinase of interest, the Caliper LifeSciences electrophoretic mobility shift technology platform is utilized. Fluorescently labeled substrate peptide is incubated in the presence dosed levels of compounds, a set concentration of kinase and of ATP, so that a reflective proportion of the peptide is phosphorylated. At the end of the reaction, the mix of phosphorylated (product) and non-phosphorylated (substrate) peptides are passed through the microfluidic system of the Caliper LabChip® EZ Reader II, under an applied potential difference. The presence of the phosphate group on the product peptide provides a difference in mass and charge between the product peptide and the substrate peptide, resulting in a separation of the substrate and product pools in the sample. As the pools pass the LEDS within the instrument, these pools are detected and resolved as separate peaks. The ratio between these peaks therefore reflects the activity of the chemical matter at that concentration in that well, under those conditions.\n(§3) The reaction was stopped by the addition of 70 ul of Stop buffer (100 mM HEPES pH 7.5, 0.015% Brij 35, 35 mM EDTA and 0.2% of Coating Reagent 3 (Caliper Lifesciences)). The plate was then read on a Caliper EZReader 2 (protocol settings: —1.9 psi, upstream voltage—700, downstream voltage—3000, post sample sip 35 s)."}, "Hep3B cells": {"test_system": "Hep3B cells", "experiment": "Induction of apoptosis (Caspase-Glo3/7) in Hep3B cells", "type": "cell-based", "conditions": "6 hours, FIG. 3", "description": "Hep3B cells were seeded at 20 k/well in 96-well white plates in 200 ul of DMEM/5% FBS overnight. The next day compound was added at a final DMSO concentration of 0.1% and incubated for 6 hours. Caspase activity was measured according to manufacture instruction (Caspase-Glo3/7 Assay (Promega)). Briefly, 100 ul of Caspase-Glo3/7 reagent was added to each well and incubated for 1 hour in the dark. Luminescence was measured using EnVision."}, "[1]": {"type": "in vivo", "conditions": "100 and 300 mg/kg PO BID, nude mice", "description": "as §1\nBody weight change (%) of Hep3B-bearing nude mice: FIG. 8 is a line graph depicting the body weight change (%) during the entire study period."}, "wild type FGFR-4": {"target": "T2, wild type FGFR-4 (Homo sapiens, UniProt P22455)", "T2 construct": "purchased Carna Biosciences, Inc", "T2 sequence (P22455 22-802)": "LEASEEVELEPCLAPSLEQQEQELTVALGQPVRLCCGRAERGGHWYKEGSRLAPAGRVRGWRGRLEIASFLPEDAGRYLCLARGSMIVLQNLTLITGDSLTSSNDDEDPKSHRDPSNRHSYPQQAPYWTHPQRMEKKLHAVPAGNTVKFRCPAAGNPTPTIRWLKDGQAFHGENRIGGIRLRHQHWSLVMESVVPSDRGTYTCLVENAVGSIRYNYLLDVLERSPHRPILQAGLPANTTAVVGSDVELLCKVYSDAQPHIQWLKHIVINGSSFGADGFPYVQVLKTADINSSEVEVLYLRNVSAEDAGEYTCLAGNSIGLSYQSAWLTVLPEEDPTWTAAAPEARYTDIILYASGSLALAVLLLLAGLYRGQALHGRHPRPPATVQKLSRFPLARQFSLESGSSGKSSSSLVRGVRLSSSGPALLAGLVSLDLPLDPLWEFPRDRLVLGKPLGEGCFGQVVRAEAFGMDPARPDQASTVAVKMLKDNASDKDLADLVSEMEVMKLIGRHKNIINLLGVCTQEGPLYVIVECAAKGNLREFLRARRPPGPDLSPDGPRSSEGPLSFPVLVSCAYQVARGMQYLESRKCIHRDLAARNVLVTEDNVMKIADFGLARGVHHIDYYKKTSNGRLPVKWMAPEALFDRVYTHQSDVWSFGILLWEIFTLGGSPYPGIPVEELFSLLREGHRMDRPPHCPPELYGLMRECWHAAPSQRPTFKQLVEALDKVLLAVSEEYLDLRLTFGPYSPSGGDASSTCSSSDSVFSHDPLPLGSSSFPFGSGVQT", "experiment": "FGFR-4 wild type assay at Km (Caliper mobility shift)", "type": "biochemical", "conditions": "[IC50 for FGFR1]/[IC50 for FGFR4]", "description": "as §2\nas §3, with “LabChip® EZ Reader II” for “EZReader 2”"}, "FGFR-4": {"target": "FGFR-4 (Homo sapiens, UniProt P22455)", "sequence (P22455 22-802)": "as above", "experiment": "Crystal structure of compound bound to FGFR-4 (Cys552)", "type": "binding", "conditions": "FIG. 4, FIG. 5"}}}
{"smiles": "CNC(=O)c1cc(Oc2ccc(NC(=O)Nc3ccc(Cl)c(C(F)(F)F)c3)cc2)ccn1", "note": "[Sorafenib, reference compound]", "values": [{"measurement": "tumor volume compared with vehicle group", "setting": "Hep3B xenograft tumors; 30 mg/kg PO QD, Day 4 to Day 19", "value": "Statistically significant reduction of tumor volumes"}]}
{"smiles": "C=CC(=O)Nc1cccc(C)c1Nc1ncc2cc(-c3c(Cl)c(OC)cc(OC)c3Cl)ccc2n1", "note": "[COMPOUND 25, N-(2-((6-(2,6-dichloro-3,5-dimethoxyphenyl)quinazolin-2-yl)amino)-3-methylphenyl)acrylamide]", "values": [{"measurement": "IC50", "setting": "wild type FGFR-1", "value": "0.1 to 1", "unit": "µM"}, {"measurement": "induction of apoptosis (Caspase activity)", "setting": "Hep3B cells", "value": "potent induction of apoptosis"}, {"measurement": "tumor regression", "setting": "Hep3B xenograft tumors; 100 mg/kg PO BID", "value": "regressed"}, {"measurement": "tumor volume compared with vehicle group", "setting": "Hep3B xenograft tumors; 100 mg/kg PO BID, Day 4 to Day 19", "value": "Statistically significant reduction of tumor volumes"}, {"measurement": "tumor regression", "setting": "Hep3B xenograft tumors; 300 mg/kg PO BID", "value": "almost disappeared"}, {"measurement": "tumor volume compared with vehicle group", "setting": "Hep3B xenograft tumors; 300 mg/kg PO BID, Day 4 to Day 19", "value": "Statistically significant reduction of tumor volumes"}, {"measurement": "tolerability (body weight change)", "setting": "[1]", "value": "well tolerated"}]}
{"smiles": "C=CC(=O)N(CCCCN(CC)CC)c1ncc2cc(-c3cc(OC)cc(OC)c3)c(NC(=O)NC(C)(C)C)nc2n1", "note": "[COMPOUND 52, N-(7-(3-(tert-butyl)ureido)-6-(3,5-dimethoxyphenyl)pyrido[2,3-d]pyrimidin-2-yl)-N-(4-(diethylamino)butyl)acrylamide]", "values": [{"measurement": "Ratio FGFR1/FGFR4", "setting": "wild type FGFR-4", "value": "C (the ratio is ≧100 and <200)"}, {"measurement": "IC50", "setting": "wild type FGFR-1", "value": "0.01 to 0.1", "unit": "µM"}, {"measurement": "binding site in crystal structure", "setting": "FGFR-4", "value": "binds to the cysteine at residue 552 of FGFR-4"}]}
{"smiles": "CCN1CCN(c2ccc(Nc3cc(N(C)C(=O)Nc4c(Cl)c(OC)cc(OC)c4Cl)ncn3)cc2)CC1", "note": "[BGJ398, reference compound]", "values": [{"measurement": "induction of apoptosis (Caspase activity)", "setting": "Hep3B cells", "value": "induction of apoptosis, although at a higher concentration"}, {"measurement": "tumor volume compared with vehicle group", "setting": "Hep3B xenograft tumors; 20 mg/kg PO QD, entire study", "value": "significant difference in tumor volume between BGJ398 (20 mg/kg PO QD) and vehicle groups was not observed"}]}
{"smiles": "C=CC(=O)N(C)c1ncc2cc(-c3c(Cl)c(OC)cc(OC)c3Cl)c(=O)n(C)c2n1", "note": "[COMPOUND 12]", "values": [{"measurement": "Ratio FGFR1/FGFR4", "setting": "wild type FGFR-4", "value": "D (the ratio is ≧50 and <100)"}, {"measurement": "IC50", "setting": "wild type FGFR-1", "value": "0.01 to 0.1", "unit": "µM"}]}
